# Measured values taken from patent publication US11337935B2, “Identification of stabilizers of multimeric proteins” (The Board of Trustees of the Leland Stanford Junior …, priority 2010, dated 2022).
# How the values were obtained:
# WT TTR = WT TTR (Homo sapiens (Human), UniProt P02766); assay: Acid-mediated fibril formation assay for TTR amyloidogenesis (turbidity); conditions: ligand 7.2 μM, TTR 3.6 μM, pH 4.4, 37° C., 72 h; no inhibitor = 100%
# Description: The efficacy of each compound to inhibit TTR amyloidogenesis was determined by monitoring the turbidity of TTR aggregation at acidic pH, as described previously. […] The final 1 ml sample mixture was vortexed, then incubated at 37° C. for 72 hours, after which the sample was vortexed and the optical density was measured at 400 nm on a Beckman DU® 640 spectrophotometer. […] The optical density was also corrected for the absorption of all test compounds in the absence of TTR. […] The optical density (400 nm) was measured as described above at 0, 24, 48, 72, 96, and 120 hours. All assays were performed in triplicate and the average values obtained are presented.
# TTR was preincubated with small molecules for 30 min at room temperature before amyloidosis was initiated (lowering pH to 4.4, incubation at 37° C.). […] The amyloidogenesis inhibition efficacy of each compound was determined by monitoring the turbidity of TTR (400 nm). The extent of TTR amyloidogenesis was quantitated at a fixed time point (72 h). All amyloid fibril formation data was normalized to TTR amyloidogenesis in the absence of inhibitor, assigned to be 100% fibril formation. […] The aggregation inhibition was monitored over 5 days using the acid-mediated fibril formation assay (compared to 3 days for the fixed time point described above) (FIG. 5B).
# TTR [1] = target: T1, TTR (Homo sapiens (Human), UniProt P02766); assay: Determination of IC50 using the FP assay (HTS format); assay type: binding; conditions: read-out: IC50 (50% decrease in the FP signal); repurchased top 33 hits, 10-point duplicate dose-response
# [2] = tested on: V122I TTR cytotoxicity in human AC16 cardiac cells; assay: Inhibition of V122I TTR cytotoxicity; conditions: V122I TTR and ligand 8 μM each, AC16, 24 h
# Description: (§1) The human cardiac cell line AC16 was maintained in DMEM:F12 (1:1) supplemented with 10% FBS, 1 mM Hepes buffer, 2 mM L-glutamine, 100 units/mL penicillin and 100 μg/mL streptomycin. Two to 4-day-old cultures (˜70% confluent) were used for the experiments.
# (§2) Recombinant WT TTR purified in the cold in HBSS (Mediatech, Manassas, Va.) was used as a cytotoxic insult to IMR-32 cells and the amyloidogenic V122I TTR was used as cytotoxic insult to cardiac AC16 cells. Candidate compounds (16 mM in DMSO) were diluted 1:1000 with WT TTR or V122I TTR (16 mM in HBSS, filter sterilized) or with HBSS only. The mixtures were vortexed and incubated for 24 h at 4° C. WT TTR or V122I TTR (16 mM in HBSS) containing the same amount of DMSO than TTR/candidate compound mixtures was prepared in parallel and incubated under the same conditions.
# (§3) The neuroblastoma IMR-32 and the cardiac AC16 cells were seeded in black wall, clear bottom, tissue culture treated 96-well plates (Costar) at a density of 6,000 cells/well and 250 cells/well, respectively in Opti-mem supplemented with 5% FBS, 1 mM Hepes buffer, 2 mM L-glutamine, 100 units/mL penicillin and 100 μg/mL streptomycin, 0.05 mg/mL CaCl2 and incubated overnight at 37° C. The medium was then removed and replaced immediately by the TTR/compound or HBSS previously diluted 1:1 in Opti-mem supplemented with 0.8 mg/mL BSA, 2 mM Hepes buffer, 4 mM L-glutamine, 200 units/mL penicillin, 200 μg/mL streptomycin and 0.1 mg/mL CaCl2. The cells were incubated 24 h at 37° C. after which cell viability was measured.
# (§4) Cell viability of the cells treated with TTR or TTR/candidate compound was evaluated by a resazurin reduction assay. Briefly, 10 μL/well of resazurin (500 mM, PBS) was added to each well and incubated for 2-3 h at 37° C. Viable cells reduce resazurin to the highly fluorescent resorufin dye, which is quantitated in a multiwell plate reader (Ex/Em 530/590 nm, Tecan Safire2, Austria). Cell viability was calculated as percentage of fluorescence relative to cells treated with vehicle only (100% viability) after subtraction of blank fluorescence (wells without cells). All experimental conditions were performed at least in six replicates. Averages and SEM corresponding to 2 independently performed experiments were calculated.
# (§5) The compounds under study were pre-incubated with WT TTR or V122I TTR for 24 h at 4° C. at equimolar concentrations (8 μM) and added to IMR-32 cells or AC16 cells, respectively. Cell viability was measured after 24 h by a resazurin reduction assay. […] The percentage of viable cells was calculated relative to cells treated with vehicle only (cell culture media and DMSO)—which were assigned to be 100% viable.
# [3] = tested on: WT TTR cytotoxicity in human IMR-32 neuroblastoma cells; assay: Inhibition of WT TTR cytotoxicity; conditions: WT TTR and ligand 8 μM each, IMR-32, 24 h
# Description: as §1, §2, §3, §4, §5
# human wild type TTR = human wild type TTR (Homo sapiens (Human), UniProt P02766); assay: Isothermal titration calorimetry (ITC) of ligands against TTR; assay type: binding
# Description: Calorimetric titrations were carried out on a VP-ITC calorimeter (MicroCal, Northhampton, Mass.). […] Prior to each titration, all samples were degassed for 10 minutes. The initial injection of 3.0 μL was followed by 30 injections of 8.0 μL each (25° C.) to the point that TTR was fully saturated with ligand. Integration of the thermogram after subtraction of blanks yielded a binding isotherm that was analyzed with MicroCal Origin 5.0 software.
# [4] = target: wild type biotinylated TTR (Homo sapiens (Human), UniProt P02766); assay: Surface plasmon resonance (SPR) assay on immobilized biotinylated TTR; assay type: binding
# Description: To an ice-cold solution of TTR (20 μM) in PBS was added EZ-Link Sulfo-NHS-LC-Biotin at a ratio of ˜2:1 (biotin:TTR) (minimal biotinylation) and the solution was incubated at room temperature. After 1 hour, un-reacted biotin was removed by passing the sample over a fast (FPLC) desalting column (Superdex™ 75) equilibrated with PBS.
# SPR measurements were performed at 25° C. using a Biacore T100 (GE Healthcare) instrument equilibrated in 1% DMSO in PBS as a running buffer. After pretreatment of the streptavidin-coated chip (Sensor Chop SA, Biacore), ˜4000 RU biotinylated TTR was immobilized on one channel leaving the second flow channel as a blank (streptavidin alone) control. For binding measurements, HTS hits were diluted in running buffer (1% DMSO/PBS) and different dilution series were flowed over the chip at 50 μL/min ([…], 600 s wash). A zero concentration sample was used as a negative control. The kinetic data was fitted to a one-to-one binding model using Biacore T100 evaluation software.
# TTR [5] = target: T1, TTR; assay: FP saturation binding experiment; conditions: FITC alone
# Description: The binding of probe 5 for TTR was evaluated as follows. […] The samples were allowed to equilibrate by agitation for 20 min at room temperature. Fluorescence polarization (excitation λ 485 nm, emission λ 525 nm, Cutoff λ 515 nm) measurements were taken using SpectraMax M5 Microplate Reader (Molecular Devices). […] Nonspecific FP, produced by the free fluorescent probe 5 as well as by binding of 5 to the plate, was equal to 70±10 mP.
Compound,Prevention of TTR-induced cytotoxicity [2],Prevention of TTR-induced cytotoxicity [3],also measured
Cc1ccc(Cl)c(Nc2ccccc2C(=O)O)c1Cl,–,–,% fibril formation (WT TTR): 3.87 ± 0.93%; IC50 (TTR [1]): 504 nM
"O=[N+]([O-])c1cc(O)c(O)c([N+](=O)[O-])c1 [3,5-dinitrocatechol, 3,5-dinitrocatechol, reference compound]",poor inhibitor,poor inhibitor,–
"O=C(O)c1ccccc1Nc1cc(Cl)c(OCCOCCOCCNC(=S)Nc2ccc3c(c2)C(=O)OC32c3ccc(O)cc3Oc3cc(O)ccc32)c(Cl)c1 [Compound 5, 2-(3,5-dichloro-4-(2-(2-(2-(3-(3′,6′-dihydroxy-3-oxo-3H-spiro[isobenzofuran-1,9′-xanthene]-5-yl)thioureido)ethoxy)ethoxy)ethoxy)phenylamino)benzoic acid]",–,–,Decrease in binding affinity to TTR relative to 4 (fold) (human wild type TTR): ~3 fold
Cc1n[nH]c(C)c1CCCOc1ccccc1F [Compound 7],completely prevented,completely prevented,–
CN1C(=N)NC(=O)/C1=C/c1cc(Br)c(O)c(Br)c1 [Compound 14],completely prevented,completely prevented,–
Cc1n[nH]c(C)c1CCc1nc2c3ccccc3[nH]c(=S)n2n1 [Compound 15],completely prevented,completely prevented,–
O=C(O)Cc1ccccc1Nc1c(Cl)cccc1Cl [Diclofenac],–,–,lower target residence time than 7 (fold) [4]: ~40 ×
"O=C(O)c1cccnc1Nc1cccc(C(F)(F)F)c1 [Niflumic acid, niflumic acid, reference compound]",relatively poor inhibitor,–,–
"O=C(c1cc(O)c(O)c([N+](=O)[O-])c1)c1ccccc1F [Ro 41-0960, reference compound]",completely prevented,completely prevented,–
O=C(O)Cc1ccccc1Nc1c(Cl)cccc1Cl [drawing 78],–,–,% fibril formation (WT TTR): 11.56 ± 0.72%; IC50 (TTR [1]): 3740 nM
Fluorescein isothiocyanate [FITC],–,–,Interaction with TTR (change in FP signal upon addition of TTR) (TTR [5]): no interaction with TTR
